{"source": "patent US20050277639A1", "about": "“2-Pyridinyl[7-(substituted-pyridin-4-yl)pyrazolo[1,5-a]pyrimidin-3-yl]methanones” (priority 2004, published 2005)", "biological_target": "benzodiazepine receptor (Rattus norvegicus, UniProt P18508+P62813)", "experiment": "Competition radioligand binding assay with [3H]Ro 15-1788 in washed cerebellar membranes", "conditions": "[3H]Ro 15-1788 binding; comparison with parent compound ocinaplon"}
{"smiles": "O=C(c1ccccn1)c1cnn2c(-c3cc(Br)nc(Br)c3)ccnc12", "note": "[2,6-dibromo, 2-Pyridinyl[7-(2,6-dibromopyridin-4-yl)pyrazolo[1,5-a]pyrimidin-3-yl]methanone]", "values": [{"measurement": "affinity for the benzodiazepine receptor compared with ocinaplon", "result": "substantially lower affinity"}]}
